The numbers were not newly measured in publication PMC3160472 (Nature protocols, 2011), which cites them from elsewhere.

The target in series [1] is IBC (IP3-binding core of IP3 receptor, residues 224-604 of IP3R1). The following applies: read-out: KD, IBC, 3H-IP3; Ca2+-free CLM, 4 °C, equilibrium competition binding with 3H-IP3, mean ± S.E.M., n = 3.
For series [2], the target named is NT (N-terminal domain of IP3 receptor, residues 1-604 of IP3R1). To be noted: for Kd: read-out: KD, NT, 3H-IP3, Ca2+-free CLM, 4 °C, equilibrium competition binding with 3H-IP3, mean ± S.E.M., n = 3.
The target of series [3] is IBC (IP3-binding core of IP3 receptor, residues 224-604 of IP3R1). To be noted: read-out: KD, IBC, FP, Ca2+-free CLM, 4 °C, mean ± S.E.M., n = 3.
For series [4], the target named is NT (N-terminal domain of IP3 receptor, residues 1-604 of IP3R1). The following applies: read-out: KD, NT, FP, Ca2+-free CLM, 4 °C, mean ± S.E.M., n = 3.
Series [5] has the same target. The following applies: read-out: KD, saturation radioligand binding; 'purified' NT, 3H-IP3, in TEM (pH 8.3).

Like-named read-outs stand apart in the source and are kept apart here.

Regarding “D-2-O-(2-(3-(5-fluoresceinyl)thioureido)ethyl)-myo-inositol 1,4,5-trisphosphate [FITC-IP3]”, the Kd in series [1] is 2 ± 0.2 nM; in series [2], 11.8 ± 0.2 nM; in series [3], 3 ± 0.1 nM; in series [4], 12.5 ± 0.6 nM.

In the case of `Nc1ncnc2c1ncn2[C@@H]1O[C@H](CO)[C@@H](O[C@H]2O[C@H](CO)[C@@H](OP(=O)(O)O)[C@H](OP(=O)(O)O)[C@H]2O)[C@H]1OP(=O)(O)O` [Adenophostin A], the Kd in series [1] was 0.7 ± 0.1 nM; in series [2], 6.2 ± 1.6 nM; in series [3], 0.9 ± 0.1 nM; in series [4] it was 8.6 ± 0.2 nM.

On to `O=P([O-])([O-])O[C@@H]1[C@H](O)[C@H](O)[C@@H](OP(=O)([O-])[O-])[C@H](OP(=O)([O-])[O-])[C@H]1O.[K+].[K+].[K+].[K+].[K+].[K+]` [IP3, D-myo-inositol-1,4,5-trisphosphate, hexapotassium salt], for which the Kd in series [1] was 8.7 ± 1.8 nM; in series [2] it was 65 ± 8 nM; in series [3] it was 9.2 ± 0.8 nM; in series [4], 95 ± 7 nM; in series [5] it was 2.2 ± 0.5 nM. Further, the “KD for the NT in TEM relative to Ca2+-free CLM” value in series [2] (TEM (pH 8.3) versus Ca2+-free CLM (pH 7.0), printed as higher in TEM) is recorded as ~ 40 fold.
